{"source": "paper PMC10609854", "about": "(Pharmaceuticals, 2023)", "key": {"[1]": {"biological_target": "T1, human sigma 1 receptor (Homo sapiens, UniProt Q99720)", "T1 construct": "[^3H](+)pentazocine (agonist) in Jurkat cells; host or cells: Jurkat cells", "T1 sequence (Q99720 whole entry)": "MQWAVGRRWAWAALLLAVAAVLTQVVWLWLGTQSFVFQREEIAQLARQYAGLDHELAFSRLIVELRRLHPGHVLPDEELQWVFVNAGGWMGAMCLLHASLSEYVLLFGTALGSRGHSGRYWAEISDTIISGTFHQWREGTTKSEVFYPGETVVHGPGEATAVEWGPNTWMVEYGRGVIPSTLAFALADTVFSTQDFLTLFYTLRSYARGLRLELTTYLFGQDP", "test": "radioligand binding, human sigma 1 receptor ([3H](+)pentazocine, Jurkat cells)"}, "[2]": {"test_system": "formalin-induced pain", "test": "formalin test", "format": "in vivo, mice", "experimental": "The mice received an intraperitoneal (i.p.) injection of either the test compound or a control solution. After 30 min, a 20 μL injection of a 2.5% formalin solution was administered into the right hind paw. Right after the formalin injection, the animals were individually placed into glass containers and observed for the following 30 min. During specific time intervals (0–5 min, referred to as Phase I, and 15–30 min, referred to as Phase II, post-formalin injection), the time spent by the animals licking or biting the injected paw was recorded.."}, "[3]": {"test_system": "SLIGRL-induced pruritus", "test": "SLIGRL-induced pruritus", "format": "in vivo", "details": "mice, 45 min observation", "experimental": "(§1) The area (around 2 cm^2) of the nape of mice was shaved at least 2 days prior to experiments. On the day of the experiment, each mouse was individually placed in plastic chambers (15 × 15 × 30 cm). After the 30 min period of habituation, the mice received an intradermal (i.d.) injection of histamine dihydrochloride (10 µmol/site), chloroquine (CQ, 200 µg/site), or SLIGRL-NH2 (40 nmol/site), which were dissolved in physiological saline and administrated at the constant volume of 20 μL. Immediately following the injection, scratching (series of movements considered as a single scratching bout usually consisted of three single scratches) of the injected site by the hind paw was counted for 60 min, 30 min, or 45 min after histamine, CQ, and SLIGRL-NH2 injection, respectively."}, "[4]": {"biological_target": "human histamine H3 receptor", "set-up": "method as in PMID 28797771", "details": "[3H]Nα-methylhistamine in HEK293 cells; cited from earlier work"}, "[5]": {"test_system": "carrageenan-induced edema", "test": "carrageenan-induced paw edema", "format": "in vivo", "details": "rats, 30 mg/kg", "experimental": "(§2) The acute, local inflammation and paw edema was induced by subplantar injection of 0.1 mL of 1% carrageenan (made in PBS) into the rat right hind paw. The paw volume was measured using the dislocation of the water column of the plethysmometer (Plethysmometr 7140, Ugo Basile) before and at 1, 2, and 3 h after subplantar injection of carrageenan."}, "[6]": {"test_system": "carrageenan-induced thermal hyperalgesia", "test": "carrageenan-induced thermal hyperalgesia (plantar test)", "format": "in vivo", "details": "rats", "experimental": "as §2\nTo evaluate the heightened sensitivity to thermal stimuli, we employed a plantar test apparatus (Commat Ltd., Ankara, Turkey). Rats were individually placed in plexiglass chambers and allowed to acclimatize for 20 to 30 min before testing. A radiant heat source was positioned beneath the chamber floor, directly under the hind paw. The time it took for the paw to withdraw in response to the heat was automatically recorded by a photocell and an electronic timer. The intensity of the radiant heat was adjusted to achieve baseline withdrawal times of 10–15 s, and a preset cut-off time of 30 s was established to prevent tissue damage. […] Three successive applications of the heating stimulus were performed, with 1- to 2-minute intervals between them, and the mean of these measurements was calculated. Paw withdrawal latency was recorded for each animal before carrageenan administration and at 1, 2, and 3 h afterward."}, "[7]": {"test_system": "CQ-induced pruritus", "test": "chloroquine (CQ)-induced pruritus", "format": "in vivo, mice", "details": "mice, 2.5, 5, 10 and 15 mg/kg i.p.; 30 min observation", "experimental": "as §1"}, "[8]": {"test_system": "spontaneous locomotor activity", "test": "spontaneous locomotor activity", "format": "in vivo", "details": "mice", "experimental": "The mean number of light-beam crossings in the vehicle-treated animals was 1.51 ± 0.13 x 103, measured during the 30 min-long period of observation. The test compound at a dose of 30 mg/kg […]\neffect [F(2,21) = 4.43, p < 0.05] (Figure S1).\nFigure S1. […] The test compound or vehicle (1% solution of Tween 80) were administered 30 min intraperitoneally (i.p.) before the beginning of the test. The results are presented as bar plots showing the mean ± SEM. Statistical analysis: one-way ANOVA followed by Dunnett’s post hoc test, * p < 0.05, n = 8 mice per group.\ntime spent on the rotarod apparatus was 60 seconds for each control mouse. The same effect was observed in the E153- treated mice. […]\nimpaired the motor coordination of mice at any tested speed [F(2,15) = 0.41, p=0.67] (Figure S2). We"}, "[9]": {"biological_target": "T2, human μ opioid receptor (Homo sapiens, UniProt P35372)", "T2 construct": "host or cells: HEK293 cells", "T2 sequence (P35372 whole entry)": "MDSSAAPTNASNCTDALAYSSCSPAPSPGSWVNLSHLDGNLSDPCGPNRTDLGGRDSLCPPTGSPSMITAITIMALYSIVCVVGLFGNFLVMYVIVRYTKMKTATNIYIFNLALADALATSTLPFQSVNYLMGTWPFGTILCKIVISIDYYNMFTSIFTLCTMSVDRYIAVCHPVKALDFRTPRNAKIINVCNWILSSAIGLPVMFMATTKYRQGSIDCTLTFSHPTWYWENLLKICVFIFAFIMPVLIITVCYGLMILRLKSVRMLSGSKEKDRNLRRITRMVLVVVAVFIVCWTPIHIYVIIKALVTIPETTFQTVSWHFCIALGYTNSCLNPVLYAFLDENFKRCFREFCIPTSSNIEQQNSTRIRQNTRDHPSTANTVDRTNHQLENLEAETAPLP", "test": "radioligand binding, human opioid μ receptor ([3H]DAMGO, HEK293 cells)"}, "[10]": {"biological_target": "T3, human sigma 2 receptor (Homo sapiens, UniProt Q5BJF2)", "T3 construct": "host or cells: Jurkat cells", "T3 sequence (Q5BJF2 whole entry)": "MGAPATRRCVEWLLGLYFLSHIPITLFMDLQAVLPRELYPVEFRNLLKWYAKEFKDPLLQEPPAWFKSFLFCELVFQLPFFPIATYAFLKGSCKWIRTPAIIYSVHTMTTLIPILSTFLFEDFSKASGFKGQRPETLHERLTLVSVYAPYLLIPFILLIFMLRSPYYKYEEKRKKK", "test": "radioligand binding, human sigma 2 receptor ([3H]DTG, Jurkat cells)", "details": "[3H]DTG with unlabeled (+)-pentazocine"}, "[11]": {"biological_target": "T4, human kappa opioid receptor (Homo sapiens, UniProt P41145)", "T4 construct": "host or cells: RBL cells", "T4 sequence (P41145 whole entry)": "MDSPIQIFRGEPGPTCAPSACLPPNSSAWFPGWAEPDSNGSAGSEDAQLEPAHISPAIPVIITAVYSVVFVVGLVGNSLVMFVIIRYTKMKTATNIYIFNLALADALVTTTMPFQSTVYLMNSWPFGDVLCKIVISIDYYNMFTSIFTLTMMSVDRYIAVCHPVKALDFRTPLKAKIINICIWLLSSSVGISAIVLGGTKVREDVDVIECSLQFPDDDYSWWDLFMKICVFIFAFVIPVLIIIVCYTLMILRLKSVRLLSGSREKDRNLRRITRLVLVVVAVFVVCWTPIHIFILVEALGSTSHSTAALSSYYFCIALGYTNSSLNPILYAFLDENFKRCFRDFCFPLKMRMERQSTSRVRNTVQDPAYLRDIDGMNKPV", "test": "radioligand binding, human opioid kappa receptor ([3H]U69593, RBL cells)"}, "[12]": {"test_system": "OXPT-induced tactile allodynia", "test": "oxaliplatin-induced neuropathic pain, von Frey test", "format": "in vivo", "details": "mice", "experimental": "Neuropathy was induced by administering a single dose (10 mg/kg) of Oxaliplatin (OXPT) dissolved in a 5% glucose solution (Polfa Kutno, Poland). To assess the response to mechanical stimuli, the von Frey test was carried with application of the electronic von Frey unit (Bioseb, France). The apparatus contained a single flexible filament, which was used to apply increasing force ranging from 0 to 10 g to the plantar surface of the mouse’s hind paw. The crossing of pain threshold led to the paw withdrawal. The mechanical pressure that evoked the nocifensive response was subsequently recorded. The measurement was performed before the OXPT administration and 7 days afterwards. The compounds were administrated to the animals with developed mechanical allodynia observed as a statistically significant decrease in pain threshold. On the day of the experiment, each mouse was placed in an observation chamber with a wire mesh bottom and was allowed to habituate for 1 h. After the habituation period, the mouse pain threshold was tested 3 times alternately with at least a 30 s gap between each measurement. The mean of these three consecutive measurements was taken as a baseline value. The mice with tactile allodynia were i.p. pretreated with the tested compound or their combinations, and 30 min later the animals were tested again according to the same procedure."}}, "note": "Several values for one entry are separate records, joined by “and”; a condition that tells them apart may be missing. Equal values may be shown once.", "data": [{"compound": "O=C(O)C(=O)O.c1ccc(-c2ccc(OCCCCCN3CCCCCC3)cc2)cc1", "note": "[Compound E153, 1-(5-(4-Phenylphenoxy)pentyl)azepane hydrogen oxalate]", "values": [{"measurement": "IC50", "setting": "[1]", "value": 2.4, "unit": "nM"}, {"measurement": "Ki", "setting": "[1]", "value": 1.2, "unit": "nM"}, {"measurement": "inhibition at 1 µM", "setting": "[1]; at 1 μM", "value": 95, "unit": "%"}, {"measurement": "duration of the nociceptive response, acute phase of the formalin test", "setting": "[2]; mice, 10, 15 and 30 mg/kg i.p., 0–5 min after formalin", "value": "did not significantly affect"}, {"measurement": "paw licking or biting behavior, late phase of the formalin test", "setting": "[2]; mice, all doses tested (10, 15 and 30 mg/kg i.p.), 15–30 min after formalin", "value": "significantly attenuated"}, {"measurement": "scratch bouts, SLIGRL-induced pruritus", "setting": "[3]; 5 mg/kg i.p.", "value": "not effective"}, {"measurement": "scratch bouts, SLIGRL-induced pruritus", "setting": "[3]; 7.5 and 10 mg/kg i.p.", "value": "significantly diminished"}, {"measurement": "Ki", "setting": "[4]", "value": "34 nM and 33.9 nM"}, {"measurement": "paw volume increase, carrageenan edema", "setting": "[5]; 1 h after carrageenan, vehicle 51.1%", "value": 27.1, "unit": "%"}, {"measurement": "paw volume increase, carrageenan edema", "setting": "[5]; 2 h after carrageenan, vehicle 102.4%", "value": 45.4, "unit": "%"}, {"measurement": "paw volume increase, carrageenan edema", "setting": "[5]; 3 h after carrageenan, vehicle 123.5%", "value": 42.6, "unit": "%"}, {"measurement": "paw withdrawal latency (thermal), % of baseline", "setting": "[6]; 15 mg/kg, 1 h after carrageenan", "value": 100.8, "unit": "%"}, {"measurement": "paw withdrawal latency (thermal), % of baseline", "setting": "[6]; 15 mg/kg, 2 h after carrageenan", "value": 122.6, "unit": "%"}, {"measurement": "paw withdrawal latency (thermal), % of baseline", "setting": "[6]; 15 mg/kg, 3 h after carrageenan", "value": 122.6, "unit": "%"}, {"measurement": "paw withdrawal latency (thermal), % of baseline", "setting": "[6]; 30 mg/kg, 1 h after carrageenan", "value": 130.3, "unit": "%"}, {"measurement": "paw withdrawal latency (thermal), % of baseline", "setting": "[6]; 30 mg/kg, 2 h after carrageenan", "value": 114.8, "unit": "%"}, {"measurement": "paw withdrawal latency (thermal), % of baseline", "setting": "[6]; 30 mg/kg, 3 h after carrageenan", "value": 126.6, "unit": "%"}, {"measurement": "number of scratch bouts, CQ-induced pruritus", "setting": "[7]", "value": "significantly decreased"}, {"measurement": "spontaneous locomotor activity (light-beam crossings, 30 min)", "setting": "[8]; 15 mg/kg i.p.", "value": "no effect"}, {"measurement": "spontaneous locomotor activity (light-beam crossings, 30 min)", "setting": "[8]; 30 mg/kg i.p.", "value": "significantly altered"}, {"measurement": "inhibition at 1 µM", "setting": "[9]", "value": 11, "unit": "%"}, {"measurement": "inhibition at 1 µM", "setting": "[10]", "value": 102, "unit": "%"}, {"measurement": "inhibition at 1 µM", "setting": "[11]", "value": 52, "unit": "%"}, {"measurement": "von Frey paw withdrawal force, % of baseline", "setting": "[12]; 10 mg/kg i.p., early phase (3 h after OXPT), OXPT alone 60.13%", "value": 71.5, "unit": "%"}, {"measurement": "reversal of the effect of OXPT (von Frey)", "setting": "[12]; 10 mg/kg i.p., late phase (7 days after OXPT)", "value": "not in late phase"}, {"measurement": "von Frey paw withdrawal force, % of baseline", "setting": "[12]; 15 mg/kg i.p., early phase (3 h), OXPT alone 60.5%", "value": 80.0, "unit": "%"}, {"measurement": "von Frey paw withdrawal force, % of baseline", "setting": "[12]; 15 mg/kg i.p., late phase (7 days), OXPT alone 57.4%", "value": 79.4, "unit": "%"}, {"measurement": "von Frey paw withdrawal force, % of baseline", "setting": "[12]; 30 mg/kg i.p., early phase (3 h), OXPT alone 57.9%", "value": 97.9, "unit": "%"}, {"measurement": "von Frey paw withdrawal force, % of baseline", "setting": "[12]; 30 mg/kg i.p., late phase (7 days), OXPT alone 60.6%", "value": 87.9, "unit": "%"}]}]}
